Results: patent US10208067B2, “Compounds for treating spinal muscular atrophy” (Hoffmann-La Roche Inc., priority 2015, dated 2019)
Like-named read-outs stand apart in the source and are kept apart here.

Assays:
[1] = tested on: full length SMN2 minigene mRNA (HEK293H cells stably transfected with SMN2-A minigene); assay: RT-qPCR assay for SMN2 minigene pre-mRNA splicing in cultured cells; assay type: cell-based; conditions: Homo sapiens, HEK293-H, 24 hours
[2] = tested on: SMN protein in SMA patient fibroblast cells (GM03813); assay: SMN protein assay (HTRF) in cultured cells; assay type: cell-based; conditions: Homo sapiens, SMA Type 1 patient fibroblasts, 48 hours; for EC (1.5-fold): concentration producing 1.5 times SMN protein vs vehicle, read-out: EC1.5x SMN protein; for maximal fold induction: relative to vehicle control, read-out: max. fold increase of SMN protein
Experimental: The SMN HTRF (homogeneous time resolved fluorescence) assay is used to quantify the level of SMN protein in SMA patient fibroblast cells treated with test compounds. Materials used and respective sources are listed below in Table 4.
Cells are thawed and cultured in DMEM-10% FBS for 72 hours. Cells are trypsinized, counted and re-suspended to a concentration of 25,000 cells/mL in DMEM-10% FBS. The cell suspensions are plated at 5,000 cells per well in a 96 well microtiter plate and incubated for […]. […] 1 μL of test compound solution is transferred to cell-containing wells and cells are incubated for 48 hours in a cell culture incubator (37° C., 5% CO2, 100% relative humidity). Triplicate samples are set up for each test compound concentration. After 48 hours, the supernatant is removed from the wells and 25 μL of the RIPA lysis buffer, containing protease inhibitors, is added to the wells and incubated with shaking at room temperature for 1 hour. 25 μL of the diluent is added and then 35 μL of the resulting lysate is transferred to a 384-well plate, where each well contains 5 μL of the antibody solution (1:100 dilution of anti-SMN d2 and anti-SMN cryptate in SMN reconstitution buffer). The plate is centrifuged for 1 minute to bring the solution to the bottom of the wells, then incubated overnight at room temperature. Fluorescence for each well of the plate at 665 nm and 620 nm is measured on an EnVision multilabel plate reader (Perkin-Elmer).
The normalized fluorescence signal is calculated for each sample, Blank and vehicle control well by dividing the signal at 665 nm by the signal at 620 nm. Normalizing the signal accounts for possible fluorescence quenching due to the matrix effect of the lysate. The ΔF value (a measurement of SMN protein abundance as a percent value) for each sample well is calculated by subtracting the normalized average fluorescence for the Blank control wells from the normalized fluorescence for each sample well, then dividing this difference by the normalized average fluorescence for the Blank control wells and multiplying the resulting value by 100. The ΔF value for each sample well represents the SMN protein abundance from test compound-treated samples. The ΔF value for each sample well is divided by the ΔF value for the vehicle control wells to calculate the fold increase in SMN protein abundance relative to the vehicle control. Table 5 provides EC1-5× concentrations for SMN protein expression that was obtained from the 7-point concentration data generated according to the above procedure for particular compounds of the present invention.
Table 6 provides the maximum fold increase of SMN protein that was obtained from the 7-point concentration data generated according to the above procedure for particular compounds of the present invention

[3] = Table 3 (title: production of full length SMN2 minigene mRNA), read-out: EC1.5x SMN protein
[4] = concentration increasing full length SMN2 minigene mRNA 1.5-fold vs vehicle, read-out: EC1.5x minigene

Row | Compound | EC (1.5-fold) [1, 3] [µM] | EC (1.5-fold) [2] [µM] | maximal fold induction [2] | EC (1.5-fold) [1, 4] [µM]
1 | Cc1nc2ccc(-c3cc(=O)n4cc(N5CC6(CCNCC6)C5)cc(C)c4n3)nn2n1 [Example 35, 7-(2,7-diazaspiro[3.5]nonan-2-yl)-9-methyl-2-(2-methyl-[1,2,4]triazolo[1,5-b]pyridazin-6-yl)pyrido[1,2-a]pyrimidin-4-one] | 0.0022 | 0.0082 | 1.9 | 
2 | Cc1nc2ccc(-c3cc(=O)n4cc(N5CCN[C@@H](C)C5)ccc4n3)nn2n1 [Example 18, 7-[(3S)-3-methylpiperazin-1-yl]-2-(2-methyl-[1,2,4]triazolo[1,5-b]pyridazin-6-yl)pyrido[1,2-a]pyrimidin-4-one] | 0.0176 | 0.0515 | 1.72 | 
3 | Cc1nc2ncc(-c3cc(=O)n4cc(N5CC6(CN(C)C6)C5)ccc4n3)cn2n1 [Example 21, 7-(6-methyl-2,6-diazaspiro[3.3]heptan-2-yl)-2-(2-methyl-[1,2,4]triazolo[1,5-a]pyrimidin-6-yl)pyrido[1,2-a]pyrimidin-4-one] | 0.145 | 0.56 | 1.6 | 
4 | Cc1nc2ccc(-c3cc(=O)n4cc(N5CCNCC5)cc(C)c4n3)nn2n1 [Example 15, 9-methyl-7-piperazin-1-yl-2-(2-methyl-[1,2,4]triazolo[1,5-b]pyridazin-6-yl)pyrido[1,2-a]pyrimidin-4-one] |  | < 0.03 | 1.82 | < 0.03
5 | Cc1nc2ncc(-c3cc(=O)n4cc(N5CCN(C6COC6)CC5)ccc4n3)cn2n1 [Example 14, 7-[4-(oxetan-3-yl)piperazin-1-yl]2-(2-methyl-[1,2,4]triazolo[1,5-a]pyrimidin-6-yl)pyrido[1,2-a]pyrimidin-4-one] |  | > 31.6 | 1.35 | 26.2
6 | Cc1nc2ccc(-c3cc(=O)n4cc(N5CCCN(C)CC5)ccc4n3)nn2n1 [Example 20, 7-(4-methyl-1,4-diazepan-1-yl)-2-(2-methyl-[1,2,4]triazolo[1,5-b]pyridazin-6-yl)pyrido[1,2-a]pyrimidin-4-one] | 0.0418 | 0.12 | 1.77 | 
7 | Cc1nc2ncc(-c3cc(=O)n4cc(N5CCNCC5)ccc4n3)cn2n1 [Example 1, 2-(2-methyl-[1,2,4]triazolo[1,5-a]pyrimidin-6-yl)-7-piperazin-1-yl-pyrido[1,2-a]pyrimidin-4-one] |  | 0.221 | 1.9 | 0.0584
8 | Cc1nc2ccc(-c3cc(=O)n4cc(N5C[C@@H](C)N[C@@H](C)C5)cc(C)c4n3)nn2n1 [Example 26, 7-[(3R,5S)-3,5-dimethylpiperazin-1-yl]-9-methyl-2-(2-methyl-[1,2,4]triazolo[1,5-b]pyridazin-6-yl)pyrido[1,2-a]pyrimidin-4-one] | 0.0483 | 0.225 | 1.88 | 
9 | Cc1nc2ncc(-c3cc(=O)n4cc(N5CCCN(C)CC5)ccc4n3)cn2n1 [Example 4, 7-(4-methyl-1,4-diazepan-1-yl)-2-(2-methyl-[1,2,4]triazolo[1,5-a]pyrimidin-6-yl)pyrido[1,2-a]pyrimidin-4-one] |  | 0.324 | 1.78 | 0.1
10 | Cc1nc2ccc(-c3cc(=O)n4cc(N5CC6(CCNCC6)C5)ccc4n3)nn2n1 [Example 38, 7-(2,7-diazaspiro[3.5]nonan-2-yl)-2-(2-methyl-[1,2,4]triazolo[1,5-b]pyridazin-6-yl)pyrido[1,2-a]pyrimidin-4-one] | 0.002 | 0.0199 | 1.69 | 
11 | Cc1nc2ncc(-c3cc(=O)n4cc(N5CC6CNC6C5)ccc4n3)cn2n1 (stereo not drawn) [Example 9, 7-(3,6-diazabicyclo[3.2.0]heptan-3-yl)-2-(2-methyl-[1,2,4]triazolo[1,5-a]pyrimidin-6-yl)pyrido[1,2-a]pyrimidin-4-one] |  | 2.88 | 1.9 | 0.283
